This note sets out measurements from patent US20060068007A1, “Class of surfactant-like materials” (Boehringer Ingelheim Pharmaceuticals, Inc., priority 2004, published 2006).

This series is described as follows: Solubility of the active agent depending on pH. In kind it is physicochemical. The conditions noted are these: basic conditions. As to the method:
The tablets were prepared similarly as described in Example 3.

On to `COc1ccc2c(O[C@@H]3C[C@H]4C(=O)N[C@]5(C(=O)O)CC5/C=C\CCCCC[C@H](NC(=O)OC5CCCC5)C(=O)N4C3)cc(-c3csc(NC(C)C)n3)nc2c1` (stereo partly drawn) [(Z)-(1S,4R,14S,18R)-14-Cyclopentyloxycarbonylamino-18-[2-(2-isopropylamino-thiazol-4-yl)-7-methoxy-quinolin-4-yloxy]-2,15-dioxo-3,16-diaza-tricyclo[14.3.0.0^4,6]nonadec-7-ene-4-carboxylic acid], for which the solubility entry is on record as “higher solubility in basic conditions”.
